Experimental data published in US20230085307A1, “PYRIDAZINONE COMPOUND AND HERBICIDE” (NISSAN CHEMICAL CORPORATION, priority 2019, published 2023).

How the values were obtained:
green foxtail [1] = test: Test Example 4: herbicidal effect by soil treatment (Table 19, symbol G); format: in vivo, green foxtail (Setaria viridis); settings: amount of applied herbicide 320 g/ha
Summary of the method: (§1)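 Seeds were sown in sterilized diluvial soil and covered with about 1.5 cm of soil. An emulsion formulation diluted with water to a predetermined herbicide amount was sprayed evenly onto the soil surface. Plants grew in a greenhouse at 25° C. to 30° C., and the effect was scored three weeks after application using criteria from an earlier test.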

late watergrass = test: Test Example 1: herbicidal activity, application before weed generation under submerged conditions (Table 16, symbol A); format: in vivo, late watergrass (Echinochloa oryzicola); settings: 320 g/ha applied herbicide
Summary of the method: (§2)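 Alluvial soil was flooded to 4 cm depth, weed seeds were sown mixed and 2.5-leaf rice seedlings were transplanted. On sowing day, the compound's emulsion, diluted in water to a set dose, was applied to the water surface. Plants grew at 25–30 °C and were scored 0–5 after three weeks.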

southern crabgrass [2] = test: Test Example 5: herbicidal effect by foliage application, plastic box (Table 20, symbol F); format: in vivo, southern crabgrass (Digitaria ciliaris); settings: foliage application, 320 g/ha, evaluated three weeks after application
Summary of the method: (§3)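 Plants sown in sterilized diluvial soil and grown 14 days in a greenhouse at 25° C to 30° C, then sprayed on the foliage with the compound's emulsion diluted in water to a predetermined herbicide amount. Injury to weeds and crops scored three weeks after application on a visual rating scale.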

barnyard grass [3] = test: Test Example 5: herbicidal effect by foliage application, plastic box (Table 20, symbol H); format: in vivo, barnyard grass (Echinochloa crus-galli); settings: foliage application, 320 g/ha, evaluated three weeks after application
Summary of the method: as §3

rice flat sedge = test: Test Example 3: herbicidal effect by foliage application, Wagner pot (Table 18, symbol E); format: in vivo, rice flat sedge (Cyperus iria); settings: amount of applied herbicide 320 g/ha
Summary of the method: (§4)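 Plants were sown in alluvial soil held under 0.1–0.5 cm standing water and grown 14 days in a greenhouse at 25–30 °C. An emulsifiable formulation, water-diluted to the set dose, was then sprayed onto the foliage, and effects were scored three weeks later using previously defined criteria.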

blackgrass [4] = test: Test Example 5: herbicidal effect by foliage application, plastic box (Table 20, symbol J); format: in vivo, blackgrass (Alopecurus myosuroides); settings: foliage application, 320 g/ha, evaluated three weeks after application
Summary of the method: as §3

barnyard grass [5] = test: Test Example 3: herbicidal effect by foliage application, Wagner pot (Table 18, symbol H); format: in vivo, barnyard grass (Echinochloa crus-galli); settings: amount of applied herbicide 320 g/ha
Summary of the method: as §4

wild oat [6] = test: Test Example 5: herbicidal effect by foliage application, plastic box (Table 20, symbol I); format: in vivo, wild oat (Avena fatua); settings: foliage application, 320 g/ha, evaluated three weeks after application
Summary of the method: as §3

chickweed [7] = test: Test Example 4: herbicidal effect by soil treatment (Table 19, symbol P); format: in vivo, common chickweed (Stellaria media); settings: amount of applied herbicide 320 g/ha
Summary of the method: as §1

velvetleaf [8] = test: Test Example 4: herbicidal effect by soil treatment (Table 19, symbol M); format: in vivo, velvetleaf (Abutilon theophrasti); settings: amount of applied herbicide 320 g/ha
Summary of the method: as §1

Italian ryegrass [9] = test: Test Example 5: herbicidal effect by foliage application, plastic box (Table 20, symbol K); format: in vivo, Italian ryegrass (Lolium multiflorum); settings: foliage application, 320 g/ha, evaluated three weeks after application
Summary of the method: as §3

blackgrass [10] = test: Test Example 4: herbicidal effect by soil treatment (Table 19, symbol J); format: in vivo, blackgrass (Alopecurus myosuroides); settings: amount of applied herbicide 320 g/ha
Summary of the method: as §1

persian speedwell [11] = test: Test Example 5: herbicidal effect by foliage application, plastic box (Table 20, symbol R); format: in vivo, Persian speedwell (Veronica persica); settings: foliage application, 320 g/ha, evaluated three weeks after application
Summary of the method: as §3

Chinese sprangletop = test: Test Example 3: herbicidal effect by foliage application, Wagner pot (Table 18, symbol D); format: in vivo, chinese sprangletop (Leptochloa chinensis); settings: amount of applied herbicide 320 g/ha
Summary of the method: as §4

lambsquarters [12] = test: Test Example 5: herbicidal effect by foliage application, plastic box (Table 20, symbol O); format: in vivo, lambsquarters (Chenopodium album); settings: foliage application, 320 g/ha, evaluated three weeks after application
Summary of the method: as §3

persian speedwell [13] = test: Test Example 4: herbicidal effect by soil treatment (Table 19, symbol R); format: in vivo, Persian speedwell (Veronica persica); settings: amount of applied herbicide 320 g/ha
Summary of the method: as §1

southern crabgrass [14] = test: Test Example 4: herbicidal effect by soil treatment (Table 19, symbol F); format: in vivo, southern crabgrass (Digitaria ciliaris); settings: amount of applied herbicide 320 g/ha
Summary of the method: as §1

windgrass [15] = test: Test Example 4: herbicidal effect by soil treatment (Table 19, symbol L); format: in vivo, windgrass (Apera spica-venti); settings: amount of applied herbicide 320 g/ha
Summary of the method: as §1

false cleavers = test: Test Example 4: herbicidal effect by soil treatment (Table 19, symbol Q); format: in vivo, false cleavers (Galium spurium); settings: amount of applied herbicide 320 g/ha
Summary of the method: as §1

velvetleaf [16] = test: Test Example 5: herbicidal effect by foliage application, plastic box (Table 20, symbol M); format: in vivo, velvetleaf (Abutilon theophrasti); settings: foliage application, 320 g/ha, evaluated three weeks after application
Summary of the method: as §3

chickweed [17] = test: Test Example 5: herbicidal effect by foliage application, plastic box (Table 20, symbol P); format: in vivo, common chickweed (Stellaria media); settings: foliage application, 320 g/ha, evaluated three weeks after application
Summary of the method: as §3

oval-leafed pondweed = test: Test Example 1: herbicidal activity, application before weed generation under submerged conditions (Table 16, symbol C); format: in vivo, oval-leafed pondweed (Monochoria vaginalis); settings: 320 g/ha applied herbicide
Summary of the method: as §2

redroot pigweed [18] = test: Test Example 5: herbicidal effect by foliage application, plastic box (Table 20, symbol N); format: in vivo, redroot pigweed (Amaranthus retroflexus); settings: foliage application, 320 g/ha, evaluated three weeks after application
Summary of the method: as §3

windgrass [19] = test: Test Example 5: herbicidal effect by foliage application, plastic box (Table 20, symbol L); format: in vivo, windgrass (Apera spica-venti); settings: foliage application, 320 g/ha, evaluated three weeks after application
Summary of the method: as §3

green foxtail [20] = test: Test Example 5: herbicidal effect by foliage application, plastic box (Table 20, symbol G); format: in vivo, green foxtail (Setaria viridis); settings: foliage application, 320 g/ha, evaluated three weeks after application
Summary of the method: as §3

Japanese bulrush = test: Test Example 1: herbicidal activity, application before weed generation under submerged conditions (Table 16, symbol B); format: in vivo, Japanese bulrush (Schoenoplectus juncoides); settings: 320 g/ha applied herbicide
Summary of the method: as §2

wild oat [21] = test: Test Example 4: herbicidal effect by soil treatment (Table 19, symbol I); format: in vivo, wild oat (Avena fatua); settings: amount of applied herbicide 320 g/ha
Summary of the method: as §1

redroot pigweed [22] = test: Test Example 4: herbicidal effect by soil treatment (Table 19, symbol N); format: in vivo, redroot pigweed (Amaranthus retroflexus); settings: amount of applied herbicide 320 g/ha
Summary of the method: as §1

lambsquarters [23] = test: Test Example 4: herbicidal effect by soil treatment (Table 19, symbol O); format: in vivo, lambsquarters (Chenopodium album); settings: amount of applied herbicide 320 g/ha
Summary of the method: as §1

barnyard grass [24] = test: Test Example 4: herbicidal effect by soil treatment (Table 19, symbol H); format: in vivo, barnyard grass (Echinochloa crus-galli); settings: amount of applied herbicide 320 g/ha
Summary of the method: as §1

Italian ryegrass [25] = test: Test Example 4: herbicidal effect by soil treatment (Table 19, symbol K); format: in vivo, Italian ryegrass (Lolium multiflorum); settings: amount of applied herbicide 320 g/ha
Summary of the method: as §1

Q: Which results are given for `COCC(=O)Nc1ccc2sc(-c3ccc(F)cc3OC)c(-c3c(O)c(C)nn(C)c3=O)c2c1` [2-179]?
A: G: green foxtail, herbicidal effect rating (green foxtail [1]): 0 (Herbicidal rate of 5% or less (almost no effect)); Herbicidal effect on A: late watergrass (grade 0-5) (late watergrass): 3 (Herbicidal rate of 40% or more and less than 70%); herbicidal effect on F: southern crabgrass (criteria 0-5) (southern crabgrass [2]): 0 (Herbicidal rate of 5% or less (almost no effect)); herbicidal effect on H: barnyard grass (criteria 0-5) (barnyard grass [3]): 0 (Herbicidal rate of 5% or less (almost no effect)); herbicidal effect on E: rice flat sedge (rice flat sedge): 4 (Herbicidal rate of 70% or more and less than 90%); herbicidal effect on J: blackgrass (criteria 0-5) (blackgrass [4]): 0 (Herbicidal rate of 5% or less (almost no effect)); herbicidal effect on H: barnyard grass (barnyard grass [5]): 2 (Herbicidal rate of 20% or more and less than 40%); herbicidal effect on I: wild oat (criteria 0-5) (wild oat [6]): 0 (Herbicidal rate of 5% or less (almost no effect)); P: chickweed, herbicidal effect rating (chickweed [7]): 3 (Herbicidal rate of 40% or more and less than 70%); M: velvetleaf, herbicidal effect rating (velvetleaf [8]): 0 (Herbicidal rate of 5% or less (almost no effect)); herbicidal effect on K: Italian ryegrass (criteria 0-5) (Italian ryegrass [9]): 0 (Herbicidal rate of 5% or less (almost no effect)); J: blackgrass, herbicidal effect rating (blackgrass [10]): 0 (Herbicidal rate of 5% or less (almost no effect)); herbicidal effect on R: persian speedwell (criteria 0-5) (persian speedwell [11]): 3 (Herbicidal rate of 40% or more and less than 70%); herbicidal effect on D: Chinese sprangletop (Chinese sprangletop): 2 (Herbicidal rate of 20% or more and less than 40%); herbicidal effect on O: lambsquarters (criteria 0-5) (lambsquarters [12]): 2 (Herbicidal rate of 20% or more and less than 40%); R: persian speedwell, herbicidal effect rating (persian speedwell [13]): 3 (Herbicidal rate of 40% or more and less than 70%); F: southern crabgrass, herbicidal effect rating (southern crabgrass [14]): 0 (Herbicidal rate of 5% or less (almost no effect)); L: windgrass, herbicidal effect rating (windgrass [15]): 0 (Herbicidal rate of 5% or less (almost no effect)); Q: false cleavers, herbicidal effect rating (false cleavers): 0 (Herbicidal rate of 5% or less (almost no effect)); herbicidal effect on M: velvetleaf (criteria 0-5) (velvetleaf [16]): 1 (Herbicidal rate of 5% or more and less than 20%); herbicidal effect on P: chickweed (criteria 0-5) (chickweed [17]): 5 (Herbicidal rate of 90% or more (almost completely withered)); Herbicidal effect on C: oval-leafed pondweed (grade 0-5) (oval-leafed pondweed): 0 (Herbicidal rate of 5% or less (almost no effect)); herbicidal effect on N: redroot pigweed (criteria 0-5) (redroot pigweed [18]): 3 (Herbicidal rate of 40% or more and less than 70%); herbicidal effect on L: windgrass (criteria 0-5) (windgrass [19]): 0 (Herbicidal rate of 5% or less (almost no effect)); herbicidal effect on G: green foxtail (criteria 0-5) (green foxtail [20]): 0 (Herbicidal rate of 5% or less (almost no effect)); Herbicidal effect on B: Japanese bulrush (grade 0-5) (Japanese bulrush): 0 (Herbicidal rate of 5% or less (almost no effect)); I: wild oat, herbicidal effect rating (wild oat [21]): 0 (Herbicidal rate of 5% or less (almost no effect)); N: redroot pigweed, herbicidal effect rating (redroot pigweed [22]): 2 (Herbicidal rate of 20% or more and less than 40%); O: lambsquarters, herbicidal effect rating (lambsquarters [23]): 3 (Herbicidal rate of 40% or more and less than 70%); H: barnyard grass, herbicidal effect rating (barnyard grass [24]): 0 (Herbicidal rate of 5% or less (almost no effect)); K: Italian ryegrass, herbicidal effect rating (Italian ryegrass [25]): 0 (Herbicidal rate of 5% or less (almost no effect))
